Patent US5723666A, “Oxime substituted tetrahydronaphthalene derivatives having retinoid and/or retinoid antagonist-like biological activity” (Allergan, priority 1996, dated 1998)

Molecular target: T1, RARα (Homo sapiens, UniProt P10276)
T1 sequence (P10276 1-462): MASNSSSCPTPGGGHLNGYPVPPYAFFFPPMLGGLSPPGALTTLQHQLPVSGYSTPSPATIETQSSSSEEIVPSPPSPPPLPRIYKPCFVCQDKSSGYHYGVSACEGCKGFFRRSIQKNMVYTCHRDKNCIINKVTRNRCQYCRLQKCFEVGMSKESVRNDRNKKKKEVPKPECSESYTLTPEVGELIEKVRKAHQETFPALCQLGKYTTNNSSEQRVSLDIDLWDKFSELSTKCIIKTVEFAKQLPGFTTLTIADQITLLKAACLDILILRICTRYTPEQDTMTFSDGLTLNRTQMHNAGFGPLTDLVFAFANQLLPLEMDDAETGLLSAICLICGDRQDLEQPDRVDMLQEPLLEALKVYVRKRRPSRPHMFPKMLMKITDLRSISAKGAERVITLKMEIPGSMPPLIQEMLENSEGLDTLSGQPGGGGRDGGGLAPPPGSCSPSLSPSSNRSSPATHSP
Test: Ligand Binding Assay, RARα
From the text: Other assays described below, measure the ability of the compounds of the present invention to bind to, and/or activate various retinoid receptor subtypes. When in these assays a compound binds to a given receptor subtype and activates the transcription of a reporter gene through that subtype, then the compound is considered an agonist of that receptor subtype. […] In the below described assays the ability of the compounds to bind to RARα, RARβ, RARγ, RXRα, RXRβ and RXRγ receptors, and the ability or inability of the compounds to activate transcription of a reporter gene through these receptor subtypes can be tested.
A holoreceptor transactivation assay and a ligand binding assay which measure the antagonist/agonist like activity of the compounds of the invention, or their ability to bind to the several retinoid receptor subtypes, respectively, are described in published PCT Application No. WO WO93/11755 (particularly on pages 30-33 and 37-41) published on Jun. 24, 1993, the specification of which is also incorporated herein by reference. A description of the holoreceptor transactivation assay is also provided below.
CV1 cells (5,000 cells/well) were transfected with an RAR, reporter plasmid MTV-TREp-LUC (50 ng) along with one of the RAR expression vectors (10 ng) in an automated 96-well format by the calcium phosphate procedure of Heyman et al. Cell 68, 397-406, (1992). […]

- Kd: 1000 nM
Structure (SMILES): CO/N=C1\CCC(C)(C)c2ccc(/N=N/c3ccc(C(=O)O)cc3)cc21 [Compound D4]
